{
  "source": "paper PMC9299640",
  "about": "“Incorporation of β‐Alanine in Cu(II) ATCUN Peptide Complexes Increases ROS Levels, DNA Cleavage and Antiproliferative Activity” (Chemistry (Weinheim an Der Bergstrasse, Germany), 2021)",
  "key": {"[1]": {"system": "NCI-H460 (non-small cell lung carcinoma)", "assay": "Antiproliferative activity, sulforhodamine B (SRB) assay", "type": "cell-based, human", "conditions": "exposure 72 h, 3-fold dilutions, α-MEM + 5% fetal calf serum, 37 °C, mean ± SD of at least three independent experiments", "experimental": "(§1) The antiproliferative activity of selected Cu(II) ATCUN complexes was investigated towards different tumor cell lines (HCT116, NCI-H460, SiHa and SW480 cells) and expressed as the IC50 values.\n(§2) Table S13. Accumulation of Cu in HCT116 cells after 24 h incubation with Cu-GGH, 1, 3, 4 and CuCl2 (70 µM) as determined by ICP-MS (n = 3), and cytotoxic activity in human cancer cell lines HCT116, NCI-H460, SiHa and SW480 expressed as the IC50 ± SD (in µM) as well as by the residual viable cells after treatment with 70 μM of the respective compound (%) as determined by the SRB assay (exposure time 72 h). accumulated Cu IC50 values […]\n(§3) a – indicates no antiproliferative activity observed after treatment with the respective compound at 70 μM for 72 h.\n(§4) S-12.1 Determination of IC50 values against HCT116, NCI-H460, SiHa and SW480 […]\n(§5) HCT116, SW480 and NCI-H460 cells were supplied by ATCC, while SiHa cells were supplied by Dr. David Cowan, of the Ontario Cancer Institute, Canada. The cells were grown in α-MEM (Life Technologies) supplemented with 5% fetal calf serum (Moregate Biotech) at 37 °C in a humidified incubator with 5% CO2. […]\n(§6) in 96-well plates and left to settle for 24 h. Compounds were added as water solutions to the plates in a series of 3-fold dilutions for 72 h before the assay was terminated by addition of 10% trichloroacetic acid (Merck Millipore) at 4 °C for 1 h. Cells were stained […]\n(§7) with 0.4% sulforhodamine B (Sigma-Aldrich) in 1% acetic acid for 30 min in the dark at room temperature and then washed with 1% acetic acid to remove unbound dye. The stain was dissolved in unbuffered Tris base (10 mM, Serva) for 30 min on a plate shaker in the dark and quantified on a BioTek EL808 microplate reader at an absorbance of 490 nm with a reference wavelength of 450 nm to determine the percentage of cell-growth inhibition by determining the absorbance of each sample relative to a negative (no inhibitor) and a no-growth control (day 0). IC50 values were calculated with SigmaPlot 12.5 (Systat Software Inc.) using a three-parameter logistic sigmoidal dose−response curve between the calculated growth inhibition and the compound concentration. The presented IC50 values are the mean of at least three independent experiments, where 10 concentrations were tested in duplicate for each compound.\n(§8) Ventures), by diluting with a matrix-matched solution with regard to HNO3 and Tm concentration, producing calibration standards with concentrations of 0.5, 1, 3, 5, 7, 10, […]\n(§9) The measured Cu concentrations in the cell accumulation samples were in the range of 27–82 μg/L. The reported values are the means of at least three independent accumulation experiments conducted in triplicates with blank wells for each substance to account for unspecific binding of the Cu(II) complexes to the plastic of the well plates.\n(§10) Accumulation values have been corrected by subtracting the average amount Cu determined in the cell-free wells.\n(§11) Calibration curves for Cu were prepared with concentrations ranging from 0.5–100 µg/L. The limit of detection (LOD) was defined as 3 times the random error in the y-direction (Sy/x) of the calibration curve divided by the slope of the calibration curve. The limit of quantification (LOQ) was defined as 10 times the random error in the y-direction (Sy/x) of the calibration curve divided by the slope of the calibration curve.42 The LOD was determined for Cu as 1.8 μg/L and the LOQ was 5.95 μg/L."}, "[2]": {"system": "HCT116 (colorectal carcinoma)", "assay": "Antiproliferative activity, sulforhodamine B (SRB) assay", "type": "cell-based, human", "experimental": "as §1, §2, §3, §4, §5, §6, §7, §8, §9, §10, §11"}, "[3]": {"system": "SW480 (colon adenocarcinoma)", "assay": "Antiproliferative activity, sulforhodamine B (SRB) assay", "type": "cell-based, human", "experimental": "as §1, §2, §3, §4, §5, §6, §7, §8, §9, §10, §11"}, "[4]": {"system": "SiHa (cervical carcinoma)", "assay": "Antiproliferative activity, sulforhodamine B (SRB) assay", "type": "cell-based, human", "experimental": "as §1, §2, §3, §4, §5, §6, §7, §8, §9, §10, §11"}, "HCT116 cells": {"system": "HCT116 cells", "assay": "Cellular uptake of Cu by ICP-MS", "type": "cell-based, human", "conditions": "70 µM, 24 h, 37 °C, 5% CO2, 4 × 10^5 cells/well, HNO3 lysis, corrected for cell-free wells, n = 3", "experimental": "We aimed to correlate the antiproliferative activity to the accumulation of Cu in HCT116 cells. Therefore, cells were treated for 24 h with complexes Cu−GGH, 1, 3, 4 and CuCl2 (70 μM), and the Cu content of the samples was determined by ICP‐MS (Table S13). […] The higher Cu contents probably lead to enhanced oxidative stress levels in cells, which consequently results in higher antiproliferative activity.\nThe antiproliferative activity of selected Cu(II) ATCUN complexes was investigated towards different tumor cell lines (HCT116, NCI-H460, SiHa and SW480 cells) and expressed as the IC50 values. Additionally, cellular uptake studies in HCT116 tumor cells were carried out and the amount of Cu was determined with inductively coupled plasma mass spectrometry (ICP-MS).\nTable S13. […]\nwith 0.4% sulforhodamine B (Sigma-Aldrich) in 1% acetic acid for 30 min in the dark at room temperature and then washed with 1% acetic acid to remove unbound dye. The stain was dissolved in unbuffered Tris base (10 mM, Serva) for 30 min on a plate shaker in the dark and quantified on a BioTek EL808 microplate reader at an absorbance of 490 nm with a reference wavelength of 450 nm to determine the percentage of cell-growth inhibition by determining the absorbance of each sample relative to a negative (no inhibitor) and a no-growth control (day 0). […]"}, "CT-DNA": {"system": "CT-DNA", "assay": "DNA melting curves by UV/VIS spectroscopy", "type": "binding, calf"}, "[5]": {"conditions": "after treatment with 70 μM, 72 h"}, "[6]": {"conditions": "exposure 72 h, 3-fold dilutions, α-MEM + 5% fetal calf serum, 37 °C, mean of at least three independent experiments"}},
  "data": [
    {"smiles": "[Cl][Cu][Cl]", "note": "[CuCl2, reference compound]", "values": [
      {"measurement": "IC50", "setting": "[1]", "result": "> 70", "unit": "µM"},
      {"measurement": "residual viable cells HCT116", "setting": "[2]; [5]", "result": "87 ± 6", "unit": "%"},
      {"measurement": "IC50", "setting": "[2]; exposure 72 h, 3-fold dilutions, α-MEM + 5% fetal calf serum, 37 °C, Cu(II):peptide 1:1.05, mean ± SD of at least three independent experiments", "result": "> 70", "unit": "µM"},
      {"measurement": "residual viable cells SW480", "setting": "[3]; [5]", "result": "– (indicates no antiproliferative activity observed after treatment with the respective compound at 70 μM for 72 h)"},
      {"measurement": "IC50", "setting": "[3]; [6]", "result": "> 70", "unit": "µM"},
      {"measurement": "residual viable cells SiHa", "setting": "[4]; [5]", "result": "93 ± 22", "unit": "%"},
      {"measurement": "IC50", "setting": "[4]; [6]", "result": "> 70", "unit": "µM"},
      {"measurement": "accumulated Cu in HCT116", "setting": "HCT116 cells", "result": "0.754 ± 0.010", "unit": "μg/4 × 10^5 cells"},
      {"measurement": "ΔTm relative to CT-DNA", "setting": "CT-DNA; 2.5 µM complex or CuCl2, CT-DNA 50 µM (ref. Tm 78.3 °C), MOPS 50 mM pH 7.4", "result": 3.2, "unit": "°C"},
      {"measurement": "Tm of CT-DNA after treatment", "setting": "CT-DNA; 2.5 µM complex or CuCl2, CT-DNA 50 µM, MOPS 50 mM pH 7.4, 260 nm, 0.5 °C/min, Cu(II):peptide 1:1.05", "result": 81.5, "unit": "°C"}
    ]}
  ]
}
